In this assay the target is HDAC2 (Homo sapiens, UniProt Q92769). In words: HDAC2 fluorescence inhibition assay (tBoc-Lys(Ac)-AMC).
HDAC2, sequence (Q92769 with tags, fused parts or gaps): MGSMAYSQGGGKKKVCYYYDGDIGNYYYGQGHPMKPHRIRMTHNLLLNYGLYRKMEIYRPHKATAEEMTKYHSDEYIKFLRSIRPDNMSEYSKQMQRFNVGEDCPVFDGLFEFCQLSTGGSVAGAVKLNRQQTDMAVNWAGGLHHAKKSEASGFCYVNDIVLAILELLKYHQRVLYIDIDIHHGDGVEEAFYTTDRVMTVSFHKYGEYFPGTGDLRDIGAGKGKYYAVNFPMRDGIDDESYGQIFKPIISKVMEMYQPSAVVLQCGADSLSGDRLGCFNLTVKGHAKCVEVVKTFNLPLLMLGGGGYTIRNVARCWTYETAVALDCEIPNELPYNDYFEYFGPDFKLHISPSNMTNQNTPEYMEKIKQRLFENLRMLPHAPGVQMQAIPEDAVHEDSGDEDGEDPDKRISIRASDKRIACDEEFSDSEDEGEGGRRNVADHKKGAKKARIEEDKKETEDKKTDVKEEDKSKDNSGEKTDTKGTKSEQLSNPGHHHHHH
Turning to `Nc1ccccc1NC(=O)c1ccc(CNc2cc[nH]n2)cc1` [Example 131, 4-((1H-pyrazol-3-ylamino)methyl)-N-(2-aminophenyl)benzamide], the IC50 (commonly the concentration that inhibits the measured activity by half) was at least 500 nM.

`Nc1ccccc1NC(=O)c1ccc(Cn2ncc3cc(F)ccc32)cc1` [Example 37, N-(2-aminophenyl)-4-((5-fluoro-1H-indazol-1-yl)methyl)benzamide] displayed a half-maximal inhibitory concentration (IC50) of 50 to 100 nM. Take `Cc1cnn(Cc2ccc(C(=O)Nc3ccccc3N)cc2)c1` [Example 34, N-(2-aminophenyl)-4-((4-methyl-1H-pyrazol-1-yl)methyl)benzamide]: the 50% inhibitory concentration (IC50) fell in the range of 100 to 500 nM. For the compound `Cc1nn(Cc2ccc(C(=O)Nc3ccccc3N)cc2)c2cc(C(F)(F)F)ccc12` [Example 93, N-(2-aminophenyl)-4-((3-methyl-6-(trifluoromethyl)-1H-indazol-1-yl)methyl)benzamide], the IC50 was in the range of 50 to 100 nM. The figure for `COc1cc2cnn(Cc3ccc(C(=O)Nc4ccccc4N)cc3)c2cc1OC` [Example 99, N-(2-aminophenyl)-4-((5,6-dimethoxy-1H-indazol-1-yl)methyl)benzamide] is at most 50 nM; for `Cc1nn(Cc2ccc(C(=O)Nc3ccccc3N)cc2)c2ccc(F)cc12` [Example 70, N-(2-aminophenyl)-4-((5-fluoro-3-methyl-1H-indazol-1-yl)methyl)benzamide] it is 100 to 500 nM; for `CC(=O)Nc1ccc2cnn(Cc3ccc(C(=O)Nc4ccccc4N)cc3)c2c1` [Example 89, 4-((6-acetamido-1H-indazol-1-yl)methyl)-N-(2-aminophenyl)benzamide] it is at most 50 nM.

The compound `Nc1ccccc1NC(=O)c1ccc(Cn2[nH]c3ccccc3c2=O)cc1` [Example 65, N-(2-aminophenyl)-4-((3-oxo-1H-indazol-2(3H)-yl)methyl)benzamide] came in with a concentration for half-maximal inhibition (IC50) of 100 to 500 nM. Consider `NC(=O)c1cnn(Cc2ccc(C(=O)Nc3ccccc3N)cc2)c1` [Example 142, 1-(4-(2-aminophenylcarbamoyl)benzyl)-1H-pyrazole-4-carboxamide], for which the IC50 is 50 to 100 nM. In the case of `Nc1ccccc1NC(=O)c1ccc(Cn2[nH]c(=O)c3ccccc32)cc1` [Example 64, N-(2-aminophenyl)-4-((3-oxo-2,3-dihydro-1H-indazol-1-yl)methyl)benzamide], the IC50 lay within 50 to 100 nM. The figure for `Nc1ccccc1NC(=O)c1ccc(Cn2cc3cc([N+](=O)[O-])ccc3n2)cc1` [Example 8, N-(2-aminophenyl)-4-((5-nitro-2H-indazol-2-yl)methyl)benzamide] is at most 50 nM; for `Nc1ccc(-c2cccs2)cc1NC(=O)c1ccc(Cn2cc3ccccc3n2)cc1` [Example 111, 4-((2H-indazol-2-yl)methyl)-N-(2-amino-5-(thiophen-2-yl)phenyl)benzamide] it is at most 50 nM. Under `Nc1ccccc1NC(=O)c1ccc(Cn2cc3ccc(F)cc3n2)cc1` [Example 35, N-(2-aminophenyl)-4-((6-fluoro-2H-indazol-2-yl)methyl)benzamide] stands 50 to 100 nM.

`Cc1ccnn1Cc1ccc(C(=O)Nc2ccccc2N)cc1` [Example 148, N-(2-aminophenyl)-4-((5-methyl-1H-pyrazol-1-yl)methyl)benzamide] came in with a half-maximal inhibitory concentration (IC50) of 100 to 500 nM. `Nc1ccccc1NC(=O)c1ccc(Cn2nc3ccccc3c2N)cc1` [Example 88, 4-((3-amino-2H-indazol-2-yl)methyl)-N-(2-aminophenyl)benzamide] displayed a half-maximal inhibitory concentration (IC50) of 50 to 100 nM. The figure for `CCc1nn(Cc2ccc(C(=O)Nc3ccccc3N)cc2)c2ccccc12` [Example 72, N-(2-aminophenyl)-4-((3-ethyl-1H-indazol-1-yl)methyl)benzamide] is 50 to 100 nM; for `CC(=O)Nc1ccc2c(c1)c(C)nn2Cc1ccc(C(=O)Nc2ccccc2N)cc1` [Example 107, 4-((5-acetamido-3-methyl-1H-indazol-1-yl)methyl)-N-(2-aminophenyl)benzamide] it is 50 to 100 nM. `Nc1ccccc1NC(=O)c1ccc(Cn2cccn2)cc1` [Example 31, 4-((1H-pyrazol-1-yl)methyl)-N-(2-aminophenyl)benzamide] had a concentration for half-maximal inhibition (IC50) of at least 500 nM.

With `Nc1ccccc1NC(=O)c1ccc(Cn2cc(C(=O)NCc3ccccc3)cn2)cc1` [Example 128, 1-(4-(2-aminophenylcarbamoyl)benzyl)-N-benzyl-1H-pyrazole-4-carboxamide], the IC50 was at most 50 nM. On to `Nc1ccccc1NC(=O)c1ccc(Cn2cc(C(=O)NC3CC3)cn2)cc1` [Example 138, 1-(4-(2-aminophenylcarbamoyl)benzyl)-N-cyclopropyl-1H-pyrazole-4-carboxamide], for which the 50% inhibitory concentration (IC50) lay in the range of 50 to 100 nM.

`Cc1nn(Cc2ccc(C(=O)Nc3ccccc3N)cc2)c2cc(F)c(F)cc12` [Example 56, N-(2-aminophenyl)-4-((5,6-difluoro-3-methyl-1H-indazol-1-yl)methyl)benzamide] had an IC50 of 50 to 100 nM. `CC(c1ccc(C(=O)Nc2ccccc2N)cc1)n1ncc2ccccc21` (centres unmarked) [Example 108, 4-(1-(1H-indazol-1-yl)ethyl)-N-(2-aminophenyl)benzamide] had an IC50 of 50 to 100 nM. The figure for `Nc1ccccc1NC(=O)c1ccc(Cc2c[nH]c3ccccc23)cc1` [Example 158, 4-((1H-Indol-3-yl)methyl)-N-(2-aminophenyl)benzamide] is 50 to 100 nM; for `CCCNC(=O)c1cnn(Cc2ccc(C(=O)Nc3ccccc3N)cc2)c1` [Example 149, 1-(4-(2-aminophenylcarbamoyl)benzyl)-N-propyl-1H-pyrazole-4-carboxamide] it is at most 50 nM. The compound `Nc1ccccc1NC(=O)c1ccc(Cn2ncc3cc([N+](=O)[O-])ccc32)cc1` [Example 5, N-(2-aminophenyl)-4-((5-nitro-1H-indazol-1-yl)methyl)benzamide] displayed an IC50 of at most 50 nM.

As to `Nc1ccccc1NC(=O)c1ccc(Cn2ncc3cc(NC(=O)OCc4cccnc4)ccc32)cc1` [Example 23, Pyridin-3-ylmethyl 1-(4-((2-aminophenyl)carbamoyl)benzyl)-1H-indazol-5-ylcarbamate], the half-maximal inhibitory concentration (IC50) was at most 50 nM. Consider `Nc1ccccc1NC(=O)c1ccc(Cn2cc3cc([N+](=O)[O-])ccc3n2)s1` [Example 20, N-(2-Aminophenyl)-5-((5-nitro-2H-indazol-2-yl)methyl)thiophene-2-carboxamide], for which the IC50 is at most 50 nM. The figure for `Cc1nn(Cc2ccc(C(=O)Nc3ccccc3N)cc2)c2ccccc12` [Example 28, N-(2-Aminophenyl)-4-((3-methyl-1H-indazol-1-yl)methyl)benzamide] is 50 to 100 nM; for `Cc1nn(Cc2ccc(C(=O)Nc3ccccc3N)cc2)c2ccc(C(F)(F)F)cc12` [Example 94, N-(2-aminophenyl)-4-((3-methyl-5-(trifluoromethyl)-1H-indazol-1-yl)methyl)benzamide] it is 50 to 100 nM. Take `Nc1ccccc1NC(=O)c1ccc(Cn2nc3ccccc3c2Cl)cc1` [Example 61, N-(2-aminophenyl)-4-((3-chloro-2H-indazol-2-yl)methyl)benzamide]: the IC50 was at most 50 nM. Turning to `Nc1ncncc1NC(=O)c1ccc(Cn2cc3ccccc3n2)cc1` [Example 104, 4-((2H-indazol-2-yl)methyl)-N-(4-aminopyrimidin-5-yl)benzamide], the 50% inhibitory concentration (IC50) is at least 500 nM.

The compound `Nc1ccccc1NC(=O)c1ccc(Cn2nc3ccccc3c2-c2ccccc2)cc1` [Example 77, N-(2-aminophenyl)-4-((3-phenyl-2H-indazol-2-yl)methyl)benzamide] registered a half-inhibitory concentration (IC50) of 50 to 100 nM.

The compound `CCc1c2ccccc2nn1Cc1ccc(C(=O)Nc2ccccc2N)cc1` [Example 73, N-(2-aminophenyl)-4-((3-ethyl-2H-indazol-2-yl)methyl)benzamide] yielded an IC50 of 100 to 500 nM. Consider `Nc1ccccc1NC(=O)c1ccc(Cn2cc3cccnc3n2)cc1` [Example 25, 4-((2H-Pyrazolo[3,4-b]pyridin-2-yl)methyl)-N-(2-aminophenyl)benzamide], for which the half-inhibitory concentration (IC50) was 100 to 500 nM.

`Cc1ccn(Cc2ccc(C(=O)Nc3ccccc3N)cc2)n1` [Example 123, N-(2-aminophenyl)-4-((3-methyl-1H-pyrazol-1-yl)methyl)benzamide] had a half-maximal inhibitory concentration (IC50) of 100 to 500 nM. For the compound `Nc1ccccc1NC(=O)c1ccc(Cn2ncc3cc(C(F)(F)F)ccc32)cc1` [Example 119, N-(2-aminophenyl)-4-((5-(trifluoromethyl)-1H-indazol-1-yl)methyl)benzamide], the concentration for half-maximal inhibition (IC50) was 50 to 100 nM.

`Cc1cnn(Cc2ccc(C(=O)Nc3cc(-c4cccs4)ccc3N)cc2)c1` [Example 115, N-(2-amino-5-(thiophen-2-yl)phenyl)-4-((4-methyl-1H-pyrazol-1-yl)methyl)benzamide] displayed an IC50 of at most 50 nM.

`Cc1c2cc(F)c(F)cc2nn1Cc1ccc(C(=O)Nc2ccccc2N)cc1` [Example 57, N-(2-aminophenyl)-4-((5,6-difluoro-3-methyl-2H-indazol-2-yl)methyl)benzamide] showed an IC50 of 50 to 100 nM. The compound `COc1ccc2c(C)nn(Cc3ccc(C(=O)Nc4ccccc4N)cc3)c2c1` [Example 66, N-(2-aminophenyl)-4-((6-methoxy-3-methyl-1H-indazol-1-yl)methyl)benzamide] registered an IC50 of at most 50 nM. Turning to `CC(=O)Nc1ccc2c(C)n(Cc3ccc(C(=O)Nc4ccccc4N)cc3)nc2c1` [Example 86, 4-((6-acetamido-3-methyl-2H-indazol-2-yl)methyl)-N-(2-aminophenyl)benzamide], the IC50 was at most 50 nM. Turning to `Nc1ccccc1NC(=O)c1ccc(Cn2ncc3c(F)cc(F)cc32)cc1` [Example 44, N-(2-aminophenyl)-4-((4,6-difluoro-1H-indazol-1-yl)methyl)benzamide], the concentration for half-maximal inhibition (IC50) lay in the range of 50 to 100 nM.

With `Cc1c2ccc(F)cc2nn1Cc1ccc(C(=O)Nc2ccccc2N)cc1` [Example 69, N-(2-aminophenyl)-4-((6-fluoro-3-methyl-2H-indazol-2-yl)methyl)benzamide], the IC50 lay within 50 to 100 nM.

In turn, `Nc1ccccc1NC(=O)c1ccc(Cn2ncc3ccc(F)cc32)cc1` [Example 36, N-(2-aminophenyl)-4-((6-fluoro-1H-indazol-1-yl)methyl)benzamide] showed a half-inhibitory concentration (IC50) of 50 to 100 nM. `COCCCNC(=O)c1cnn(Cc2ccc(C(=O)Nc3ccccc3N)cc2)c1` [Example 152, 1-(4-(2-aminophenylcarbamoyl)benzyl)-N-(3-methoxypropyl)-1H-pyrazole-4-carboxamide] came in with a half-inhibitory concentration (IC50) of at most 50 nM.
